± gives the standard deviation of the averaged measurements.
Tests used:
Test in all cases: LOEC (log10 uM (lowest observed effect concentration))
[1] = compound: NS(=O)(=O)C(F)(F)C(F)(F)C(F)(F)C(F)(F)C(F)(F)C(F)(F)F [Perfluorohexanesulfonamide]
Method: (§1)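 BioMAP Diversity Plus panel in human primary cell co-cultures, 4 concentrations in duplicate blinded samples. Responses are log10 fold change versus DMSO control, processed with tcpl v2.1.0. A hit is called when responses at any concentration exceed the cutoff (the larger of 3*bmad or log10(1.2)); the lowest observed effect concentration (modl_ga, log10 uM) is reported for hits.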

[2] = compound: O=C(O)C(F)(F)C(F)(F)C(F)(F)C(F)(F)C(F)(F)C(F)(F)C(F)(F)C(F)(F)C(F)(F)C(F)F [11-H-Perfluoroundecanoic acid]
Method: as §1

[3] = compound: C=CC(=O)OCC(F)(F)C(F)(F)C(F)(F)COC(=O)C=C [1H,1H,5H,5H-Perfluoro-1,5-pentanediol diacrylate]
Method: as §1

[4] = compound: O=S(=O)(Cl)C(F)(F)C(F)(F)C(F)(F)C(F)(F)C(F)(F)C(F)(F)C(F)(F)C(F)(F)F [Perfluoro-1-octanesulfonyl chloride]
Method: as §1

[5] = compound: O=S(=O)(O)CCC(F)(F)C(F)(F)C(F)(F)C(F)(F)C(F)(F)C(F)(F)F [6:2 Fluorotelomer sulfonic acid]
Method: as §1

[6] = compound: FC(F)(F)C(F)(F)C(F)(F)C(F)(F)C(F)(F)C(F)(F)C(F)(F)I [1-Iodopentadecafluoroheptane]
Method: as §1

[7] = compound: COC(=O)C(F)(F)C(F)(F)OC(F)(C(F)(F)F)C(F)(F)OC(F)=C(F)F [Methyl perfluoro(3-(1-ethenyloxypropan-2-yloxy)propanoate)]
Method: as §1

Test System	LOEC (log10 uM) [1]	LOEC (log10 uM) [2]	LOEC (log10 uM) [3]	also measured
IMphg MCSF down	1.07 ± 0.32			
IMphg SRB down		1.78		
IMphg SRB.Mphg down		1.78	1.78	
IMphg VCAM1 down		1.78	1.07 ± 0.32	
KF3CT IL1a down		1.78	0.573 ± 0.39	
KF3CT IP10 down	1.78	1.3	1.3	LOEC (log10 uM) [4]: 1.78
KF3CT MCP1 down		1.3	1.3	
KF3CT MIG down		1.78	1.3	
KF3CT MMP9 down		1.3	1.3	LOEC (log10 uM) [4]: 1.78
KF3CT PAI1 down		1.3	1.3	LOEC (log10 uM) [4]: 1.3
KF3CT SRB down		1.78	1.3	
KF3CT uPA down		1.78	1.3	
LPS CD40 down	1.78	1.78	0.845	
LPS CD69 down	1.78	1.78	1.3	
LPS Eselectin down		1.78	1.3	
LPS IL8 up				LOEC (log10 uM) [5]: 1.54 ± 0.34; LOEC (log10 uM) [4]: 1.78
LPS MCP1 down		1.78	1.3	
LPS PGE2 down		1.78	1.3	LOEC (log10 uM) [4]: 1.78
LPS PGE2 up	1.54 ± 0.34			
LPS SRB down		1.78	1.3	

Test System	LOEC (log10 uM) [1]	LOEC (log10 uM) [2]	LOEC (log10 uM) [3]	also measured
LPS Thrombomodulin up		1.31 ± 0.66	1.3	
LPS VCAM1 down	1.78	1.78	1.07 ± 0.32	
MyoF ACTA1 down		1.54 ± 0.34	0.845	LOEC (log10 uM) [6]: 0.301
MyoF CollagenI down		1.3	1.3	LOEC (log10 uM) [6]: 0.845
MyoF CollagenIII down		1.3	1.3	LOEC (log10 uM) [6]: 0.845; LOEC (log10 uM) [4]: 1.78
MyoF CollagenIV up	1.3	1.07 ± 0.32		LOEC (log10 uM) [6]: 0.845; LOEC (log10 uM) [4]: 1.78
MyoF MMP1 up			0.845	LOEC (log10 uM) [6]: 0.573 ± 0.39
MyoF PAI1 down		1.78	1.3	
MyoF SRB down	1.78	1.3	1.3	LOEC (log10 uM) [6]: 0.845
MyoF VCAM1 down		1.3	0.845	LOEC (log10 uM) [6]: 0.573 ± 0.39
MyoF bFGF down			1.3	
SAg CD38 down		1.78	1.07 ± 0.32	
SAg CD40 down	1.78	1.78	0.845	
SAg CD69 down	1.78	1.78	0.845	
SAg Eselectin down	1.78	1.78	0.845	
SAg Eselectin up				LOEC (log10 uM) [4]: 1.78
SAg IL8 down	1.78	1.78	0.845	
SAg MCP1 down		1.78	0.845	
SAg MIG down			1.3	
SAg PBMCCytotoxicity down			0.845	

Test System	LOEC (log10 uM) [1]	LOEC (log10 uM) [2]	LOEC (log10 uM) [3]	also measured
SAg PBMCCytotoxicity up	1.78			
SAg Proliferation down		1.78	0.301	
SAg SRB down		1.78	1.3	LOEC (log10 uM) [4]: 1.78
hDFCGF CollagenIII down		0.845	0.573 ± 0.39	
hDFCGF ICAM1 down			0.301	
hDFCGF IL8 down			0.845	
hDFCGF IP10 down	1.54 ± 0.34	0.573 ± 0.39	0.301	LOEC (log10 uM) [7]: 0.845
hDFCGF ITAC down	1.78	0.573 ± 0.39	0.301	LOEC (log10 uM) [7]: 0.845
hDFCGF MCP1 down		1.78	0.301	
hDFCGF MCP1 up	1.78			
hDFCGF MCSF down		1.54 ± 0.34	0.301	
hDFCGF MIG down		0.573 ± 0.39	0.301	
hDFCGF MMP1 down			0.845	
hDFCGF PAI1 down		1.78	0.845	
hDFCGF Proliferation down	1.78	0.845	0.301	
hDFCGF SRB down			0.573 ± 0.39	
hDFCGF SRB up				LOEC (log10 uM) [7]: 0.301
hDFCGF TIMP1 down			0.573 ± 0.39	
hDFCGF TIMP2 down	1.78			
hDFCGF VCAM1 down		0.801 ± 0.71	0.301	LOEC (log10 uM) [7]: 0.845
